Values joined by “and” are separate entries in the source; they are usually repeats but may differ in a detail not shown here. Equal values may be shown once. After the bases stand the sugars from the 5' end (letter, count) and the backbone: PS all phosphorothioate, else s phosphorothioate and o phosphodiester by linkage. Methylation of C is not given here. e = 2'-O-(2-methoxyethyl) (MOE); l = locked nucleic acid (LNA); d = 2'-deoxy (DNA)
Experiments:
DGAT2 = conditions: ASO
SNHG14 = conditions: ASO

Sequence	target mRNA inhibition (DGAT2; HepG2, 0.12 µM)	target mRNA inhibition (DGAT2; HepG2, 2.5 µM)	target mRNA inhibition (DGAT2; HepG2, 10 µM)	also measured
TCTGGAACTTCTTCTGGACC (sugars e5 d10 e5, PS)	43%	–	–	–
TAGGATGCTTAACTTCTGCT (sugars e5 d10 e5, PS)	–	58%	85%	–
TTCACCTCCAGGACCTCAGT (sugars e5 d10 e5, PS)	46%	–	–	–
CTGGACCCATCGGCCCCAGG (sugars e5 d10 e5, PS)	41%	–	–	–
AAAGGAGTTTGTGTTTCCCA (sugars e5 d10 e5, PS)	–	73%	91%	–
TACCTTATCTTTGTCCACAT (sugars e5 d10 e5, PS)	–	–	78% and 91%	–
GCAGGACCCCGGAGTAGGCG (sugars e5 d10 e5, PS)	58%	–	–	–
CTTAGGCATGCTTCCTCCCA (sugars e5 d10 e5, PS)	–	57%	84%	–
ACCCACTGGAGCACTGAGAT (sugars e5 d10 e5, PS)	72%	–	–	–
AAAAACCACTGTTGCTGAGC (sugars e5 d10 e5, PS)	–	62%	92%	–
CCACAGCGATAATCACA (sugars e3 d10 e4, PS)	–	63% and 60%	84% and 75%	–
ATAGCATTGCCACTCCCATT (sugars e2 d13 e5, PS)	57%	–	–	–
CCCATCATGACCAGGCCCTG (sugars e5 d10 e5, PS)	–	31%	77%	–
TTGCAATGTTGCCATCATAC (sugars e5 d10 e5, PS)	–	–	96% and 94%	–
ATAGCATTGCCACTCCCATT (sugars e5 d10 e5, PS)	57%	–	–	–
CCAACAGTGGTGATGGGCTT (sugars e5 d10 e5, PS)	60%	–	–	–
CCTCATCTCAGTGCCCAAAG (sugars e5 d10 e5, PS)	–	25%	63%	–
GCACTCTCTCTGCACACTCC (sugars e5 d10 e5, PS)	–	61%	87%	–
AAATGGTAGCCCCTTGTTGC (sugars e5 d10 e5, PS)	32%	–	–	–
CAGCCTGGACAAGTCCTGCC (sugars e5 d10 e5, PS)	84%	–	81% and 90% and 88%	target mRNA inhibition (DGAT2; HepG2, 20 µM): 86%
GGATACTCAGAAGAGCAGTG (sugars e5 d10 e5, PS)	–	60%	80%	–
GGTGAATAGCTATGTCTAAA (sugars e5 d10 e5, PS)	–	70% and 55%	91% and 85%	–

Sequence	target mRNA inhibition (DGAT2; HepG2, 0.12 µM)	target mRNA inhibition (DGAT2; HepG2, 2.5 µM)	target mRNA inhibition (DGAT2; HepG2, 10 µM)	also measured
TGATAGCATTGCCACTCCCA (sugars e3 d14 e3, PS)	66%	–	–	–
CTTTGGATAGTCGATTTACC (sugars e5 d10 e5, PS)	–	59%	88%	–
TTAAGCTTTGTGACCTTGGG (sugars e5 d10 e5, PS)	67%	–	–	–
GTCAGCAGGTTGTGTGTCTT (sugars e3 d14 e3, PS)	61%	–	–	–
AGGTAAGGCCGTATGCCTGG (sugars e2 d13 e5, PS)	63%	–	–	–
TTCAAAAAGTAGCTACTGCA (sugars e5 d10 e5, PS)	47%	–	–	–
GCATAGCTGAGCAAATCCAT (sugars e5 d10 e5, PS)	–	69%	85%	–
CAGGCCACTCCCAGTACAAG (sugars e5 d10 e5, PS)	1%	–	–	–
AGTAGGGCACCAGCCCCCAG (sugars e5 d10 e5, PS)	0%	–	–	–
GCCAGGTGCTCTCATTTCTT (sugars e5 d10 e5, PS)	–	63%	91%	–
AGAGAGACAATGAGTAAGGG (sugars e5 d10 e5, PS)	–	68%	79%	–
CCCACTGGAGCACTGAGATG (sugars e5 d10 e5, PS)	78%	–	–	–
GGTCTGGGAACAGCAGCATC (sugars e5 d10 e5, PS)	–	59%	79%	–
ATGGGAAAGTAGTCTCGAAA (sugars e5 d10 e5, PS)	0%	–	–	–
TCAGAATAATTCTCCT (sugars l3 d10 l3, PS)	–	–	–	target mRNA inhibition (SNHG14; Human Neuronal Cell, 0.2 µM): 49%; target mRNA inhibition (SNHG14; Human Neuronal Cell, 1 µM): 57%
TTTTTATACCTTTCTTTAAC (sugars lddldddddddddldlldll, PS)	–	–	–	target mRNA inhibition (SNHG14; Human Neuronal Cell, 7.5 µM): 61%
AGATCATTCTCAACAATTA (sugars ldldlldddddddddddll, PS)	–	–	–	target mRNA inhibition (SNHG14; Human Neuronal Cell, 7.5 µM): 57%
TTTTAACCAGAGTGGC (sugars l1 d11 l4, PS)	–	–	–	target mRNA inhibition (SNHG14; Human Neuronal Cell, 7.5 µM): 53%
TATACCTTTCTTTAACCCTT (sugars l2 d3 l1 d12 l2, PS)	–	–	–	target mRNA inhibition (SNHG14; Human Neuronal Cell, 7.5 µM): 43%
TTATACCTTTCTTTAACCCT (sugars lddddlddddddddldddll, PS)	–	–	–	target mRNA inhibition (SNHG14; Human Neuronal Cell, 7.5 µM): 58%
CACATCTTGTATACAA (sugars l3 d10 l3, PS)	–	–	–	target mRNA inhibition (SNHG14; Human Neuronal Cell, 0.2 µM): 52%; target mRNA inhibition (SNHG14; Human Neuronal Cell, 1 µM): 61%
ACATGTCCCTTTATAT (sugars l3 d10 l3, PS)	–	–	–	target mRNA inhibition (SNHG14; Human Neuronal Cell, 0.2 µM): 1%; target mRNA inhibition (SNHG14; Human Neuronal Cell, 1 µM): -13%; target mRNA inhibition (SNHG14; Human Neuronal Cell, 5 µM): 6%; target mRNA inhibition (SNHG14; Mouse Primary Neuronal Cell, 0.005 µM): 88.2%

Reference: the OligoGym collection
